Experimental data from US7964738B2, “Pharmaceutical compositions and methods of use of lipophilic, silicon-substituted, cyclooxygenase-2 selective non-steroidal anti-inflammatory drugs and derivatives” (Silamed, Inc., priority 2004, dated 2011).
pIC50: −log10 of the molar value.

Columns and labels:
[1] = test system: human MiaPaCa-2 pancreatic cancer cells; assay: In vitro cellular proliferation assay (SRB); assay type: cell-based; conditions: MIA PaCa-2, 72 h, 3 days incubation, starting concentration 100 μM, read-out: IC50 (growth inhibition, MiaPaCa-2)
Method: In vitro cell proliferation assays were performed using a 96-well plate based SRB (Sulforhodamine-B) assay. Briefly, human MiaPaCa-2 pancreatic cancer cells were plated in 100 μl medium on day 0 in 96-well microtiter plates (Falcon #3072). On day 1, 10 μl of serial dilutions of each compound (Nine 1:2 dilutions with a starting concentration of 100 μM) were added in triplicates to the plates. As a vehicle control, serial dilutions of DMSO with a starting concentration of 0.5% were also included. After incubation for 3 days at 37° C. in a humidified incubator, cells were fixed in situ with 50 μL of cold trichloroacetic acid (TCA, final concentration at 10% w/v) for 60 minutes. Cells were then washed 5 times with H2O and air-dried. Next, cells were stained with 20 μL of 0.2% SRB in 1% acetic acid and incubated at room temperature for 30 minutes and unbound SRB was removed by washing 5 times with 1% acetic acid and air-dried. Finally, bound SRB stain was solubilized in 50 μL of 50 μM Tris buffer before taking an optical density measurement at 570 nm using a BioTek Synergy™ HT Multiple Detection microplate reader. The growth inhibition data were expressed as the percentage of cell survival calculated from the background corrected absorbance. The surviving fraction of cells was determined by dividing the mean absorbance values of the test agent-treated samples by the mean absorbance values of untreated control.

[2] = biological target: T1, Recombinant human COX-2 (Homo sapiens, UniProt P35354); assay: Recombinant human COX-2 enzyme assay (PGE2 by EIA); assay type: biochemical; conditions: preincubation 5 min at 22° C., 2 μM arachidonic acid
T1 sequence (P35354 18-604): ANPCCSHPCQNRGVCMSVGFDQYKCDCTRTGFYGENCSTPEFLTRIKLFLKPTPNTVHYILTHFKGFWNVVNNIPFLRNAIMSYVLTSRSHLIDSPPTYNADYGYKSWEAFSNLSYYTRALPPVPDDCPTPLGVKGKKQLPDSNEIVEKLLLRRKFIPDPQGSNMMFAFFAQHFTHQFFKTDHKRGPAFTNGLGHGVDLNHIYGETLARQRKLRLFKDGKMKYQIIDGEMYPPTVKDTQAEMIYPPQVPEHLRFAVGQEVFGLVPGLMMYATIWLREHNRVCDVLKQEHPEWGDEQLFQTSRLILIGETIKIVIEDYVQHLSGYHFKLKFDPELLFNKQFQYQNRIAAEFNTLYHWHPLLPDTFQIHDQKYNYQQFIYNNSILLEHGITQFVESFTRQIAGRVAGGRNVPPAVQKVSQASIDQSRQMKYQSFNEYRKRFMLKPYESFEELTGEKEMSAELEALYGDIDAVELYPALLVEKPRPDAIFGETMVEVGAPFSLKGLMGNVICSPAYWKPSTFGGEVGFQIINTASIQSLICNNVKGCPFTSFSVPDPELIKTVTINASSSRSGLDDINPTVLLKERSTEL
Method: (§1) Recombinant human enzymes were reconstituted in buffer (100 mM Tris, pH 7.8 at 37° C.) containing 0.5 mM phenol (964 μl total volume). The enzyme preparations were preincubated with vehicle (DMSO) or compounds of the invention in DMSO (1% DMSO in final assay) for 10 min at 25° C. for COX-1 and 5 min at 22° C. for COX-2. Excess hematin was added 1 min prior to initiation of reaction (1.25 μM final hematin) with 4 μM (COX-1) and 2 μM (COX-2) arachidonic acid (sodium salt). The final assay volume was 1.0 ml (100 mM Tris (pH 7.8), 0.5 mM phenol, 1.25 μM hematin and arachidonic acid at 37° C.). The reaction was incubated for 35 s (maximum level of COX-2 accumulation as determined from time course studies), and terminated by addition of 50-60 μl of SnCl2 (1 mg/ml) in 0.1 N HCl. PGE2 production in the presence or absence of the drug was determined by Enzyme Immunoassay (EIA) analysis as described.
(§2) EIA Determination of Prostaglandins
(§3) EIA reagents for prostaglandin determination were purchased from commercial sources. PGE2 levels in enzyme assays were measured against standards prepared in the same milieu using standard methods. The EIA was conducted in 96-well micotiter plates and optical density measured using a microplate reader by standard methods.

[3] = biological target: Recombinant human COX-1 (Homo sapiens, UniProt P23219); assay: Recombinant human COX-1 enzyme assay (PGE2 by EIA); assay type: biochemical
Sequence of Recombinant human COX-1 (P23219 24-599): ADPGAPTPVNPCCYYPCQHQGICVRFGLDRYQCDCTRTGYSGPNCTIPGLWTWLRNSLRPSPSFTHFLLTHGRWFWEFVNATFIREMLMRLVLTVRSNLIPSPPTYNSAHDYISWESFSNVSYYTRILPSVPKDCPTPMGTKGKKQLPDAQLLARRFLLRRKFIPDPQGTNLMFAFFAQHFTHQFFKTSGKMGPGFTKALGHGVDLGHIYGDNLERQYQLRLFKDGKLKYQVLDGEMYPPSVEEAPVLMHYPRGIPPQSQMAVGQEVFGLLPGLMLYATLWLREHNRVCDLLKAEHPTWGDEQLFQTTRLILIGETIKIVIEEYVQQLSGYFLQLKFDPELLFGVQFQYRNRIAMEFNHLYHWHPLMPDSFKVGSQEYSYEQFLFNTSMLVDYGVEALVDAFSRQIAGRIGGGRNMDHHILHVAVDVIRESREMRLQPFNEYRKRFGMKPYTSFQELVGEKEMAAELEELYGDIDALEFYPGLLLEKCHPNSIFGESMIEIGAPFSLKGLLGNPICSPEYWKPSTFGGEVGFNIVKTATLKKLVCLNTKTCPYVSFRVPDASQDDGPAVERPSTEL
Method: as §1, with “Excess hematin was added 1 min prior to initiation of reaction (1.25 μM final hematin) with 4 μM (COX-1) and 2 μM (COX-2) arachidonic acid (sodium salt). The final assay volume was 1.0 ml (100 mM Tris (pH 7.8), 0.5 mM phenol, 1.25 μM hematin and arachidonic acid at 37° C.).” left out
as §2, §3

| Structure (SMILES) | pIC50 [1] | melting point | pIC50 [2] | pIC50 [3] |
| --- | --- | --- | --- | --- |
| COc1ccc2c(c1)c(CC(=O)NCCC[Si](C)(C)C)c(C)n2C(=O)c1ccc(Cl)cc1 [Example 1, 2-(1-(4-chlorobenzoyl)-5-methoxy-2-methyl-1H-indol-3-yl)-N-(3-(trimethylsilyl)propyl)acetamide] | 5.18 | 97 to 101 °C | 6.68 | < 5.00 |
| COc1ccc2c(c1)c(CC(=O)NC[Si](C)(C)C)c(C)n2C(=O)c1ccc(Cl)cc1 [Example 2, 2-(1-(4-chlorobenzoyl)-5-methoxy-2-methyl-1H-indol-3-yl)-N-((trimethylsilyl)methyl)acetamide] | 4.84 | 163 to 165 °C | 6.41 | 5.57 |
| COc1ccc2c(c1)c(CC(=O)NC[Si](C)(C)c1ccccc1)c(C)n2C(=O)c1ccc(Cl)cc1 [Example 3, 2-(1-(4-chlorobenzoyl)-5-methoxy-2-methyl-1H-indol-3-yl)-N-((dimethyl(phenyl)silyl)methyl)acetamide] | 5.32 | 121 to 124 °C | 6.51 | < 5.00 |
| CCO[Si](CCCNC(=O)Cc1c(C)n(C(=O)c2ccc(Cl)cc2)c2ccc(OC)cc12)(OCC)OCC [Example 4, 2-(1-(4-chlorobenzoyl)-5-methoxy-2-methyl-1H-indol-3-yl)-N-(3-(triethoxysilyl)propyl)acetamide] | 4.70 | 71 to 73 °C (dec.) | 6.24 | 5.30 |
| COc1ccc2c(c1)c(CC(=O)O)c(C)n2C(=O)c1ccc(Cl)cc1 [Indomethacin, reference compound] | < 4.00 |  |  |  |
